Patent publication US20230118114A1, “BIOERODIBLE LIFE SUPPORT HYDROGELS FOR THE DELIVERY OF VIABLE MITOCHONDRIA” (University of Kentucky Research Foundation, priority 2021, published 2023)
“Also recorded” adds a separate entry of the source.

Columns and labels:
[1] = test system: spinal cord injury (SCI); conditions: cited from earlier work
[2] = test system: mitochondria isolated from spinal cord injury site; conditions: once daily ALC administered acutely after contusion SCI; cited from earlier work
[3] = test system: mitochondria isolated from spinal cord injury site; test: Mitochondrial respiration (OCR) of spinal cord mitochondria after contusion SCI; assay type: in vivo, rats; conditions: 24 hours after SCI; MitoTxp 100 µg intraspinal within 3 hr; ALC 300 mg/kg i.p. at 3 hours plus booster 6 hours later
Procedure: Bars are Mean ± SD, n=5-6/group. *p<0.05 compared with sham; # p<0.05 versus vehicle.
Briefly, rats were contused at L1/L2 spinal level with 250 kDyn force using Infinite Horizon Impactor; Sham group received only T12 laminectomy. Designated injured rats were injected either intraspinally with healthy mitochondria (100 µg, MitoTxp) isolated from syngeneic rat soleus muscle within 3 hr and/or injected with ALC (300 mg/kg, i.p.) at 3 hours followed by a booster 6 hours later. Then, after 24 hours, mitochondria were isolated from spinal cord injury site and assessed for respiration (OCR).

Compound: CC(=O)O[C@H](CC(=O)[O-])C[N+](C)(C)C [ALC, acetyl-L-carnitine]
- long term hind limb locomotor function and tissue sparing ([1]; continued daily ALC for three weeks after contusion SCI): significantly improves long term hind limb locomotor function and tissue sparing
- hind limb function ([1]; injured rats, 3 weeks of daily ALC treatment, vs vehicle): able to step consistently with weight support on their hind limbs
- tissue sparing ([1]; injured rats, 3 weeks of daily ALC treatment): increased gray and white matter tissue sparing
- mitochondrial respiration [2]: maintains mitochondrial respiration
- States III & V.1 OCR [3]: insignificant trends

Compound: N-acetylcysteine amide [NACA]
- long-term functional recovery and tissue sparing ([1]; continuous NACA 150 and 300 mg/kg/day up to 7 days post-injury): significant tissue sparing and improved recovery of hindlimb function; also recorded: significantly increased long-term functional recovery and tissue sparing
